Here are results for 15 compounds from patent publication US8008279B2, “Compound—827” (AstraZeneca AB, priority 2007, dated 2011).

This experiment has as its target T1, rhuman cathepsin K (Homo sapiens, UniProt P43235).
T1 sequence (P43235 115-329): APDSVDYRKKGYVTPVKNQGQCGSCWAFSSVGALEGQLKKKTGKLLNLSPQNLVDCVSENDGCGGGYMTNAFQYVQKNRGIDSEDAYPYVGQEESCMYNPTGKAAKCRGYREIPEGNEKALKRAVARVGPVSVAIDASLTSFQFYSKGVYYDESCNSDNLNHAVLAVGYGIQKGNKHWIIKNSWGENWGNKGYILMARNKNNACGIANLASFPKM
Kind of experiment: Assay for identification of Cathepsin K inhibitors (QFRET, cleavage of Z-Phe-Arg-AMC). The experiment is classed as biochemical. As to conditions: 0.5 nM rhuman cathepsin K, Z-Phe-Arg-AMC substrate, 30 min pre-incubation, 1 h incubation at room temperature; mean of two separate occasions; read-out: CatK FRET Mean pIC50 (converted). The procedure:
0.5 nM [final] rhuman cathepsin K in phosphate buffer was added to a 384-well black microtitre plate containing investigative compounds. The enzyme and compound were pre-incubated at room temperature for 30 minutes before the addition of […] [final] Z-Phe-Arg-AMC synthetic substrate in phosphate buffer. The plates were covered and incubated for 1 h at room temperature, protected from light. Following the incubation the reaction was stopped with 7.5% [final]acetic acid. Relative fluorescence was measured using the Ultra plate reader at a wavelength of 360 nm excitation and 425 nm emission.
Data was corrected for background fluorescence (minimum controls without enzyme).
In the case of `COc1cccc2c3c([nH]c12)CCN(C(=O)[C@@H]1CCCC[C@H]1C(=O)NC1(C#N)CC1)C3` [Example 17, (1R,2R)-N-(1-cyanocyclopropyl)-2-[(6-methoxy-1,3,4,5-tetrahydro-2H-pyrido[4,3-b]indol-2-yl)carbonyl]cyclohexanecarboxamide], the IC50 was 0.658 nM. With `N#CC1(NC(=O)[C@@H]2CCCC[C@H]2C(=O)N2CCc3[nH]c4c(OCCN5CCOCC5)cccc4c3C2)CC1` [Example 37, (1R,2R)-N-(1-cyanocyclopropyl)-2-(6-(2-morpholinoethoxy)-2,3,4,5-tetrahydro-1H-pyrido[4,3-b]indole-2-carbonyl)cyclohexanecarboxamide] the figure was 3.2 nM; with `N#CC1(NC(=O)[C@@H]2CCCC[C@H]2C(=O)N2CCc3[nH]c4c(OCCN5CCCC5)cccc4c3C2)CC1` [Example 38, (1R,2R)-N-(1-cyanocyclopropyl)-2-(6-(2-(pyrrolidin-1-yl)ethoxy)-2,3,4,5-tetrahydro-1H-pyrido[4,3-b]indole-2-carbonyl)cyclohexanecarboxamide], 1.64 nM; with `COc1cc(F)cc2c3c([nH]c12)CCN(C(=O)[C@@H]1CCCC[C@H]1C(=O)NC1(C#N)CC1)C3` [Example 45, (1R,2R)-N-(1-cyanocyclopropyl)-2-(8-fluoro-6-methoxy-2,3,4,5-tetrahydro-1H-pyrido[4,3-b]indole-2-carbonyl)cyclohexanecarboxamide], 0.807 nM.

As for `N#Cc1cccc2c3c([nH]c12)CCN(C(=O)[C@@H]1CCCC[C@H]1C(=O)NC1(C#N)CC1)C3` [Example 20, (1R,2R)-N-(1-cyanocyclopropyl)-2-[(6-cyano-1,3,4,5-tetrahydro-2H-pyrido[4,3-b]indol-2-yl)carbonyl]cyclohexanecarboxamide], the IC50 is 1.91 nM. With `CC(C)c1ccc2[nH]c3c(c2c1)CN(C(=O)[C@@H]1CCCC[C@H]1C(=O)NC1(C#N)CC1)CC3` [Example 11, (1R,2R)-N-(1-cyanocyclopropyl)-2-[(8-isopropyl-1,3,4,5-tetrahydro-2H-pyrido[4,3-b]indol-2-yl)carbonyl]cyclohexanecarboxamide] the figure was 3.67 nM; with `CN(C)CCOc1cccc2c3c([nH]c12)CCN(C(=O)[C@@H]1CCCC[C@H]1C(=O)NC1(C#N)CC1)C3` [Example 36, (1R,2R)-N-(1-cyanocyclopropyl)-2-(6-(2-(dimethylamino)ethoxy)-2,3,4,5-tetrahydro-1H-pyrido[4,3-b]indole-2-carbonyl)cyclohexanecarboxamide], 0.324 nM; with `CN(C)Cc1ccc2[nH]c3c(c2c1)CN(C(=O)[C@@H]1CCCC[C@H]1C(=O)NC1(C#N)CC1)CC3` [Example 15, (1R,2R)-N-(1-cyanocyclopropyl)-2-({8-[(dimethylamino)methyl]-1,3,4,5-tetrahydro-2H-pyrido[4,3-b]indol-2-yl}carbonyl)cyclohexanecarboxamide], 8.91 nM. With `N#CC1(NC(=O)[C@@H]2CCCC[C@H]2C(=O)N2CCc3[nH]c4ncccc4c3C2)CC1` [Example 14] the figure was 1.07 nM. For the compound `N#CC1(NC(=O)[C@@H]2CCCC[C@H]2C(=O)N2CCc3[nH]c4ccc(Cl)cc4c3C2)CC1` [Example 2, (1R,2R)-2-[(8-chloro-1,3,4,5-tetrahydro-2H-pyrido[4,3-b]indol-2-yl)carbonyl]-N-(1-cyanocyclopropyl)cyclohexanecarboxamide], the IC50 was 2.99 nM. Regarding `N#CC1(NC(=O)[C@@H]2CCCC[C@H]2C(=O)N2CCc3[nH]c4c(OCCN5CCCCC5)cccc4c3C2)CC1` [Example 39, (1R,2R)-N-(1-cyanocyclopropyl)-2-(6-(2-(piperidin-1-yl)ethoxy)-2,3,4,5-tetrahydro-1H-pyrido[4,3-b]indole-2-carbonyl)cyclohexanecarboxamide], the IC50 was 0.728 nM. On to `N#CC1(NC(=O)[C@@H]2CCCC[C@H]2C(=O)N2CCc3[nH]c4ccc(F)cc4c3C2)CC1` [Example 1, (1R,2R)-N-(1-cyanocyclopropyl)-2-[(8-fluoro-1,3,4,5-tetrahydro-2H-pyrido[4,3-b]indol-2-yl)carbonyl]cyclohexanecarboxamide], for which the IC50 was 0.849 nM. Consider `N#CC1(NC(=O)[C@@H]2CCCC[C@H]2C(=O)N2CCc3[nH]c4c(OCc5ccccc5)cccc4c3C2)CC1` [Example 32, (1R,2R)-2-{[6-(benzyloxy)-1,3,4,5-tetrahydro-2H-pyrido[4,3-b]indol-2-yl]carbonyl}-N-(1-cyanocyclopropyl)cyclohexanecarboxamide], for which the IC50 was 1 nM.

For `CS(=O)(=O)n1c2c(c3ccccc31)CN(C(=O)[C@@H]1CCCC[C@H]1C(=O)NC1(C#N)CC1)CC2` [Example 40, (1R,2R)-N-(1-cyanocyclopropyl)-2-[(5-methanesulphonyl-1,3,4,5-tetrahydro-2H-pyrido[4,3-b]indol-2-yl)carbonyl]cyclohexanecarboxamide], the IC50 is 10.8 nM. With `CSc1cccc2c3c([nH]c12)CCN(C(=O)[C@@H]1CCCC[C@H]1C(=O)NC1(C#N)CC1)C3` [Example 22, (1R,2R)-N-(1-cyanocyclopropyl)-2-{[6-(methylthio)-1,3,4,5-tetrahydro-2H-pyrido[4,3-b]indol-2-yl]carbonyl}cyclohexanecarboxamide] the figure was 4.32 nM.
